Patent publication US20030211072A1, “Compositions with enhanced oral bioavailability” (priority 2000, published 2003)
Where “and” joins values, the source holds several entries; their conditions need not be identical. Equal entries are not always repeated.

Assays:
rat everted gut sacs [1] = assay: Gut sac viability (active glucose transport)
rat everted gut sacs [2] = settings: male, Wistar
[3] = In vivo biodistribution of [3H]vinblastine (100 ng/kg) after oral gavage, alone or co-administered with ascophyllum, xanthan gum or polidocanol; settings: for AUC Control of [3H]Vinblastine: 100 ng/kg alone
rat everted gut sacs [4] = assay: Everted rat intestinal sacs: tissue uptake and serosal transfer of [3H]vinblastine, alone or with verapamil/enhancer
rat everted gut sacs [5] = assay: Everted rat intestinal sacs: tissue uptake and serosal transfer of [14C]doxorubicin, alone or with verapamil/enhancer
[6] = 5 min-24 h, vinblastine 100 ng/kg alone (control)
[7] = [3H]vinblastine 100 ng/kg alone, after 5 hours
[8] = [3H]vinblastine 100 ng/kg alone, after 24 hours
[9] = [3H]vinblastine 1 ng/ml alone (Control), 90 min
[10] = [3H]vinblastine 1 ng/ml, verapamil 0 ng/ml, 60 min
[11] = [3H]vinblastine (−) verapamil, 0 min
[12] = [3H]vinblastine (−) verapamil, 30 min
[13] = [3H]vinblastine (−) verapamil, 60 min
[14] = [3H]vinblastine (−) verapamil, 90 min
[15] = [3H]vinblastine (−) verapamil, 120 min
[16] = [3H]vinblastine alone 0.1 μg/ml, 60 min
[17] = [3H]vinblastine alone 0.3 μg/ml, 60 min
[18] = [3H]vinblastine alone 0.7 μg/ml, 60 min
[19] = [3H]vinblastine alone 1.0 μg/ml, 60 min
[20] = [14C]doxorubicin 1 ng/ml alone (Control), 90 min
[21] = [14C]doxorubicin 1 ng/ml, verapamil 0 ng/ml, 60 min
[22] = [14C]doxorubicin 10 ng/ml alone (Control), 90 min
[23] = [14C]doxorubicin 100 ng/ml alone (Control), 90 min
[24] = [14C]doxorubicin (−) verapamil, 0 min
[25] = [14C]doxorubicin (−) verapamil, 30 min
[26] = [14C]doxorubicin (−) verapamil, 60 min
[27] = [14C]doxorubicin (−) verapamil, 90 min
[28] = [14C]doxorubicin (−) verapamil, 120 min
[29] = [14C]doxorubicin alone 1 ng/ml, 60 min
[30] = [14C]doxorubicin alone 3 ng/ml, 60 min
[31] = [14C]doxorubicin alone 10 ng/ml, 60 min
[32] = [14C]doxorubicin alone 100 ng/ml, 60 min
[33] = [14C]doxorubicin alone 300 ng/ml, 60 min

SMILES: COc1ccc(CCN(C)CCCC(C#N)(c2ccc(OC)c(OC)c2)C(C)C)cc1OC (stereo not shown) [Verapamil, verapamil]
- tissue viability (glucose actively transported) (rat everted gut sacs [1]; verapamil, exception: 40 μg/ml combined with 1 ng/ml [3H]vinblastine): good tissue viability
- effect on tissue uptake and serosal transfer of [14C]doxorubicin (rat everted gut sacs [2]): significantly (p<0.05, unpaired student T-test) increased
- increase of [14C]doxorubicin uptake and accumulation into the tissue (rat everted gut sacs [2]): 2 fold

SMILES: CC[C@]1(O)C[C@@H]2CN(CCc3c([nH]c4ccccc34)[C@@](C(=O)OC)(c3cc4c(cc3OC)N(C)[C@H]3[C@@](O)(C(=O)OC)[C@H](OC(C)=O)[C@]5(CC)C=CCN6CC[C@]43[C@@H]65)C2)C1 [[^3H]Vinblastine, vinblastine]
- AUC Control of [^3H]Vinblastine, Blood [3, 6]: 53.47 % Dose/organ weight
- AUC Control of [^3H]Vinblastine, Cecum [3, 6]: 20.20 % Dose/organ weight
- AUC Control of [^3H]Vinblastine, Faeces [3, 6]: 4.58 % Dose/organ weight
- AUC Control of [^3H]Vinblastine, Heart [3, 6]: 1.80 % Dose/organ weight
- AUC Control of [^3H]Vinblastine, Kidney [3, 6]: 0.98 % Dose/organ weight
- AUC Control of [^3H]Vinblastine, Large Intestinal Wash [3, 6]: 6.46 % Dose/organ weight
- AUC Control of [^3H]Vinblastine, Large Intestine [3, 6]: 1.08 % Dose/organ weight
- AUC Control of [^3H]Vinblastine, Liver [3, 6]: 4.36 % Dose/organ weight
- AUC Control of [^3H]Vinblastine, Lung [3, 6]: 1.54 % Dose/organ weight
- AUC Control of [^3H]Vinblastine, Small Intestinal Wash [3, 6]: 36.66 % Dose/organ weight
- AUC Control of [^3H]Vinblastine, Small Intestine [3, 6]: 1.69 % Dose/organ weight
- AUC Control of [^3H]Vinblastine, Spleen [3, 6]: 2.78 % Dose/organ weight
- AUC Control of [^3H]Vinblastine, Stomach [3, 6]: 5.34 % Dose/organ weight
- AUC Control of [^3H]Vinblastine, Urine [3, 6]: 1.79 % Dose/organ weight
- AUC Control of [3H]Vinblastine ([3]; Blood, 5 min-24 h): 53.47 % Dose/organ weight
- AUC Control of [3H]Vinblastine ([3]; Cecum, 5 min-24 h): 20.20 % Dose/organ weight
- AUC Control of [3H]Vinblastine ([3]; Faeces, 5 min-24 h): 4.58 % Dose/organ weight
- AUC Control of [3H]Vinblastine ([3]; Heart, 5 min-24 h): 1.80 % Dose/organ weight
- AUC Control of [3H]Vinblastine ([3]; Kidney, 5 min-24 h): 0.98 % Dose/organ weight
- AUC Control of [3H]Vinblastine ([3]; Large Intestinal Wash, 5 min-24 h): 6.46 % Dose/organ weight
- AUC Control of [3H]Vinblastine ([3]; Large Intestine, 5 min-24 h): 1.08 % Dose/organ weight
- AUC Control of [3H]Vinblastine ([3]; Liver, 5 min-24 h): 4.36 % Dose/organ weight
- AUC Control of [3H]Vinblastine ([3]; Lung, 5 min-24 h): 1.54 % Dose/organ weight
- AUC Control of [3H]Vinblastine ([3]; Small Intestinal Wash, 5 min-24 h): 36.66 % Dose/organ weight
- AUC Control of [3H]Vinblastine ([3]; Small Intestine, 5 min-24 h): 1.69 % Dose/organ weight
- AUC Control of [3H]Vinblastine ([3]; Spleen, 5 min-24 h): 2.78 % Dose/organ weight
- AUC Control of [3H]Vinblastine ([3]; Stomach, 5 min-24 h): 5.34 % Dose/organ weight
- AUC Control of [3H]Vinblastine ([3]; Urine, 5 min-24 h): 1.79 % Dose/organ weight
- levels in blood over the time course ([3]; [3H]vinblastine 100 ng/kg alone, 5 min-24 h): remained constant
- % of the dose in the stomach ([3]; [3H]vinblastine 100 ng/kg alone, after 1 hour): 1.2-1.6%
- % found in the cecum [3, 7]: 1.7±0.3%
- % found in the faeces [3, 7]: 0.33±0.03%
- % in the blood [3, 8]: 3%
- % in the heart [3, 8]: 0.7%
- tissue viability (glucose actively transported) (rat everted gut sacs [1]; [3H]vinblastine, exception: concentrations higher than 1 ng/ml): good tissue viability
- Serosal transfer (rat everted gut sacs [4]; [9]): 0.006 ng/mg of protein
- Tissue uptake (rat everted gut sacs [4]; [9]): 0.061 + ng/mg of protein and 0.061 ng/mg of protein
- Total uptake (rat everted gut sacs [4]; [9]): 0.067 ng/mg of protein
- Serosal transfer (rat everted gut sacs [4]; [10]): 0.002 ± 0.000 ng/mg of protein
- Tissue uptake (rat everted gut sacs [4]; [10]): 0.032 ± 0.005 ng/mg of protein
- Serosal transfer (rat everted gut sacs [4]; [11]): 0.000 ng/mg of protein
- Tissue uptake (rat everted gut sacs [4]; [11]): 0.001 ng/mg of protein
- Total uptake (rat everted gut sacs [4]; [11]): 0.001 ng/mg of protein
- Serosal transfer (rat everted gut sacs [4]; [12]): 0.002 ng/mg of protein
- Tissue uptake (rat everted gut sacs [4]; [12]): 0.005 ng/mg of protein
- Total uptake (rat everted gut sacs [4]; [12]): 0.007 ng/mg of protein
- Serosal transfer (rat everted gut sacs [4]; [13]): 0.003 ng/mg of protein
- Tissue uptake (rat everted gut sacs [4]; [13]): 0.032 ng/mg of protein
- Total uptake (rat everted gut sacs [4]; [13]): 0.035 ng/mg of protein
- Serosal transfer (rat everted gut sacs [4]; [14]): 0.006 ng/mg of protein
- Tissue uptake (rat everted gut sacs [4]; [14]): 0.049 ng/mg of protein
- Total uptake (rat everted gut sacs [4]; [14]): 0.055 ng/mg of protein
- Serosal transfer (rat everted gut sacs [4]; [15]): 0.008 ng/mg of protein
- Tissue uptake (rat everted gut sacs [4]; [15]): 0.050 ng/mg of protein
- Total uptake (rat everted gut sacs [4]; [15]): 0.058 ng/mg of protein
- Serosal transfer (rat everted gut sacs [4]; [16]): 0.000 ± 0.000 ng/mg of protein
- Tissue uptake (rat everted gut sacs [4]; [16]): 0.009 ± 0.000 ng/mg of protein
- Serosal transfer (rat everted gut sacs [4]; [17]): 0.001 ± 0.000 ng/mg of protein
- Tissue uptake (rat everted gut sacs [4]; [17]): 0.011 ± 0.001 ng/mg of protein
- Serosal transfer (rat everted gut sacs [4]; [18]): 0.002 ± 0.001 ng/mg of protein
- Tissue uptake (rat everted gut sacs [4]; [18]): 0.017 ± 0.001 ng/mg of protein
- Serosal transfer (rat everted gut sacs [4]; [19]): 0.003 ± 0.001 ng/mg of protein
- Tissue uptake (rat everted gut sacs [4]; [19]): 0.029 ± 0.007 ng/mg of protein

SMILES: COc1cccc2c1C(=O)c1c(O)c3c(c(O)c1C2=O)C[C@@](O)(C(=O)CO)C[C@@H]3O[C@H]1C[C@H](N)[C@H](O)[C@H](C)O1 [[^14C]Doxorubicin, doxorubicin]
- Serosal transfer (rat everted gut sacs [5]; [20]): 0.03 ± 0.00 ng/mg of protein
- Tissue uptake (rat everted gut sacs [5]; [20]): 0.02 ± 0.00 ng/mg of protein
- Total uptake (rat everted gut sacs [5]; [20]): 0.05 ± 0.01 ng/mg of protein
- Serosal transfer (rat everted gut sacs [5]; [21]): 0.010 ± 0.000 ng/mg of protein
- Tissue uptake (rat everted gut sacs [5]; [21]): 0.006 ± 0.000 ng/mg of protein
- Serosal transfer (rat everted gut sacs [5]; [22]): 0.05 ± 0.00 ng/mg of protein
- Tissue uptake (rat everted gut sacs [5]; [22]): 0.19 ± 0.03 ng/mg of protein
- Total uptake (rat everted gut sacs [5]; [22]): 0.24 ± 0.03 ng/mg of protein
- Serosal transfer (rat everted gut sacs [5]; [23]): 0.05 ± 0.07 ng/mg of protein
- Tissue uptake (rat everted gut sacs [5]; [23]): 0.75 ± 0.13 ng/mg of protein
- Total uptake (rat everted gut sacs [5]; [23]): 1.25 ± 0.07 ng/mg of protein
- Serosal transfer (rat everted gut sacs [5]; [24]): 0.000 ng/mg of protein
- Tissue uptake (rat everted gut sacs [5]; [24]): 0.001 ng/mg of protein
- Total uptake (rat everted gut sacs [5]; [24]): 0.001 ng/mg of protein
- Serosal transfer (rat everted gut sacs [5]; [25]): 0.008 ng/mg of protein
- Tissue uptake (rat everted gut sacs [5]; [25]): 0.005 ng/mg of protein
- Total uptake (rat everted gut sacs [5]; [25]): 0.013 ng/mg of protein
- Serosal transfer (rat everted gut sacs [5]; [26]): 0.017 ng/mg of protein
- Tissue uptake (rat everted gut sacs [5]; [26]): 0.007 ng/mg of protein
- Total uptake (rat everted gut sacs [5]; [26]): 0.024 ng/mg of protein
- Serosal transfer (rat everted gut sacs [5]; [27]): 0.027 ng/mg of protein
- Tissue uptake (rat everted gut sacs [5]; [27]): 0.025 ng/mg of protein
- Total uptake (rat everted gut sacs [5]; [27]): 0.052 ng/mg of protein
- Serosal transfer (rat everted gut sacs [5]; [28]): 0.024 ng/mg of protein
- Tissue uptake (rat everted gut sacs [5]; [28]): 0.030 ng/mg of protein
- Total uptake (rat everted gut sacs [5]; [28]): 0.054 ng/mg of protein
- Serosal transfer (rat everted gut sacs [5]; [29]): 0.0017 ± 0.002 ng/mg of protein
- Tissue uptake (rat everted gut sacs [5]; [29]): 0.007 ± 0.005 ng/mg of protein
- Serosal transfer (rat everted gut sacs [5]; [30]): 0.029 ± 0.005 ng/mg of protein
- Tissue uptake (rat everted gut sacs [5]; [30]): 0.082 ± 0.015 ng/mg of protein
- Serosal transfer (rat everted gut sacs [5]; [31]): 0.193 ± 0.028 ng/mg of protein
- Tissue uptake (rat everted gut sacs [5]; [31]): 0.393 ± 0.078 ng/mg of protein
- Serosal transfer (rat everted gut sacs [5]; [32]): 1.131 ± 0.500 ng/mg of protein
- Tissue uptake (rat everted gut sacs [5]; [32]): 5.598 ± 1.280 ng/mg of protein
- Serosal transfer (rat everted gut sacs [5]; [33]): 3.375 ± 0.900 ng/mg of protein
- Tissue uptake (rat everted gut sacs [5]; [33]): 25.734 ± 3.668 ng/mg of protein
- serosal transfer time course (rat everted gut sacs [5]; [14C]doxorubicin, levels plateaued after 90 min): only linear for 90 min
